Patent US5591431A, “Enhancement of clot lysis” (G.D. Searle & Co., priority 1990, dated 1997)
Where “and” joins values, the source holds several entries; their conditions need not be identical. Equal entries are not always repeated. Where two headings read alike, the source gives them in different places. Peptide text beside a SMILES is read from it.

Experiments:
[1] = system: fibrinogen; settings: rabbit, in vivo
Procedure: (§1) Fibrinogen concentration in dilute plasma is inversely proportional to the thrombin clotting of the plasma (S. Borgstrom, Acta Chir. Scand. 90:419 (1945); A. Clauss, Acta Haemat, 17:273 (1957); K. Jacobson, Scand. J. Clin. Lab. Med. 7:7 (1955). Plasma was diluted 1:10 and 200 μL of this solution added to 100 μL (10 units) of bovine thrombin. Clotting time was measured on a clinical fibrometer, and fibrinogen levels determined as mg/dL plasma.

[2] = system: tPA antigen; assay: tPA antigen ELISA in rabbit plasma during clot lysis experiments; assay type: in vivo; settings: with tPA
Procedure: Samples of rabbit plasma were assayed by a commercial ELISA assay from American Diagnostic Inc. (ADI), New York, N.Y. Several modifications are made to the ADI protocol, which include using 10 μL of untreated plasma sample to minimize background and spiking the standard curve with 10 μL rabbit plasma to equalize any salt effect that might result. The assay was standardized with mouse C127 cell tPA (Invitron, St. Louis, Mo.).
The tPA antigen levels were monitored hourly to determine if the increase in clot lysis is due to an extended tPA half-life. […] Antigen levels of tPA decreased after infusion is stopped, indicating normal clearance of the exogenous tPA.

[3] = system: α-2 antiplasmin; assay: Antiplasmin assay (plasmin cleavage of S2251) in rabbit plasma during clot lysis experiments; assay type: in vivo
Procedure: Antiplasmin levels were monitored by the antiplasmin assay (Helena Labs, Beaumont, Tex.). This assay measures inhibition of plasmin cleavage of a chromogenic substrate S2251 (H-D Valyl-Leucyl-L-Lysine-p-nitroanilide dihydrochloride) obtained from Helena Labs. A typical reaction mixture contains 215 μL of 50 mM Tris buffer pH 7.4, 110 mM NaCl, 5 μL rabbit plasma, 15 μL plasmin (1 unit), and 15 μL of substrate S2251 (3.5 mM stock) in a total reaction volume of 250 μL. The generation of p-nitroaniline product is monitored at […].

[4] = system: isolated clot in the rabbit jugular vein (tPA mediated clot lysis); assay: Rabbit jugular vein thrombolysis model I: peptide added during clot formation, then tPA infusion; assay type: in vivo, rabbit (New Zealand White); settings: tPA alone 0.125 mg/kg infused over 4 h; standard curve 1 conditions
Procedure: Two independent studies were performed using the rabbit jugular vein thrombolysis model described in D. Collen et al., J. Clin. Invest. 71:368 (1983), with minor modifications. The enhancer peptide was administered during clot formation prior to tPA administration in one set of experiments with the rabbit jugular vein thrombolysis model. The enhancer peptide produced a five-fold increase in the clot lysis obtained from infusion of 0.125 mg tPA/kg, which corresponds to the lysis observed by a six-fold increase in tPA dose.
Clot lysis standard curves were performed for varying doses of tPA from C127 mouse cells (Invitron). […] To compare the data, standard curves were established for each procedure. A linear dose dependency is observed with both sets of data. […] Increases in clot lysis were evaluated by two methods. In the first method, fold increases in % clot lysis were calculated as follows: [formula] […] Fold increase in tPA dose was determined as follows: [formula] […]
An isolated clot was formed in the rabbit jugular vein using bovine thrombin (Calbiochem, San Diego, Calif.) and ^125 I fibrinogen (Amersham, Arlington Heights, Ill.). […] Blood samples were taken every hour from the femoral vein, and clot lysis was measured by comparison of residual radioactivity in the clot at the end of 4 1/2 hours. […]

[5] = system: jugular vein clot (tPA mediated clot lysis); assay: Rabbit jugular vein thrombolysis model II: peptide coinfused with tPA; assay type: in vivo, rabbit (New Zealand White); settings: tPA alone 0.125 mg/kg; standard curve 2 conditions (17% background lysis)
Procedure: In a second experiment the enhancer peptide was administered with tPA. […] Clot lysis standard curves were performed for varying doses of tPA from […] mouse cells (Invitron). […] To compare the data, standard curves were established for each procedure. A linear dose dependency is observed with both sets of data. […] The chosen dose of tPA (0.125 mg/kg) for the peptide experiments gave 17% and 27% lysis, respectively, for the two sets of experiments. This dose was chosen as the baseline for the peptide study so that an increase in clot lysis would be observable. Increases in clot lysis were evaluated by two methods. In the first method, fold increases in % clot lysis were calculated as follows: [formula] In the second method, the equivalent dose of tPA necessary to obtain the clot lysis observed with tPA and peptide was extrapolated from the appropriate standard curve. Fold increase in tPA dose was determined as follows: [formula] A dose response study was performed with the peptides using a constant tPA dose (FIG. 5). Three doses are tested: 1.85 mg/kg, 0.185 mg/kg and 0.0185 mg/kg, which correspond to molar ratios of peptide to tPA of 385, 38.5, and 3.85, respectively with weight ratios of enhancer peptide to tPA of 15:1, 1.5:1, and 0.15:1 respectively. […]

[6] = system: fibrinogen; assay: Fibrinogen level in rabbit plasma by thrombin clotting time during clot lysis experiments; settings: enhancer peptide dose 0 mg/kg (tPA only)
Procedure: as §1

Row | Fibrinogen levels [1] | Fibrinogen (% of baseline) ([1]; 0.0185 mg/kg) | Fibrinogen (% of baseline) ([1]; 0.185 mg/kg) | Fibrinogen (% of baseline) ([1]; 1.85 mg/kg) | Fibrinogen (% of baseline) ([1]; 9.25 mg/kg) | Fibrinogen (% of baseline) ([1]; 18.5 mg/kg) | tPA Antigen 30 min. after Infusion ([2]; enhancer peptide dose 0.0185 mg/kg) [mg/mL] | tPA Antigen 30 min. after Infusion ([2]; enhancer peptide dose 0.185 mg/kg) [mg/mL] | α-2 antiplasmin levels ([3]; all rabbit experiments, including those with increased clot lysis from enhancer peptide) | α-2 Antiplasmin (% of baseline) ([3]; enhancer peptide dose 0.0185 mg/kg, with tPA) | α-2 Antiplasmin (% of baseline) ([3]; enhancer peptide dose 0.185 mg/kg, with tPA) | α-2 Antiplasmin (% of baseline) ([3]; enhancer peptide dose 1.85 mg/kg, with tPA) | α-2 Antiplasmin (% of baseline) ([3]; enhancer peptide dose 9.25 mg/kg, with tPA) | Compound | clot lysis [4] | clot lysis [5] [%] | Fibrinogen (% of baseline) [6] | α-2 Antiplasmin (% of baseline) ([3]; enhancer peptide dose 0 mg/kg (tPA only))
1 | did not change | 100 % of baseline | 100 +/- 1 % of baseline | 100 +/- 1 % of baseline | 91 % of baseline | 91 +/- 13 % of baseline | 0 | 0 | did not change | 87 +/- 7 % of baseline | 96 +/- 1 % of baseline | 86 +/- 8 % of baseline | 92 +/- 2 % of baseline | CC[C@H](C)[C@H](NC(=O)[C@H](Cc1ccccc1)NC(=O)[C@@H](NC(=O)[C@H](CC(C)C)NC(=O)[C@H](Cc1ccccc1)NC(=O)[C@@H]1CCCN1C(=O)[C@H](CCCNC(=N)N)NC(=O)[C@H](CC(N)=O)NC(=O)[C@H](C)NC(=O)[C@H](CCCCN)NC(=O)[C@H](Cc1ccccc1)NC(=O)[C@@H](NC(=O)[C@@H](NC(=O)[C@H](CCCNC(=N)N)NC(=O)[C@H](CC(N)=O)NC(=O)[C@@H]1CCCN1C(=O)[C@H](CC(N)=O)NC(=O)[C@H](CC(C)C)NC(=O)[C@H](CO)NC(=O)[C@H](CCCNC(=N)N)NC(=O)CNC(=O)[C@H](C)N)C(C)C)[C@@H](C)O)C(C)C)C(=O)O [enhancer peptide] (H-AGRSLNPNRVTFKANRPFLVFI-OH) |  |  |  | 
2 |  |  |  |  |  |  |  |  |  |  |  |  |  | tPA: tissue plasminogen activator from C127 mouse cells (Invitron Lot #76-001-31395), control tPA for this study | 17% and 16 +/- 1% | 27 | 100 % of baseline | 94 +/- 2 % of baseline
